Assay results reported in the supplement of paper PMC10307832.

Experiments:
Assay in all cases: relative viability (nuclei count vs DMSO), 5 days (fraction); higher = more cells survive
Tanzisertib + Lapatinib = compound: O[C@H]1CC[C@H](Nc2ncc3nc(Nc4c(F)cc(F)cc4F)n([C@H]4CCOC4)c3n2)CC1 [Tanzisertib] + CS(=O)(=O)CCNCc1ccc(-c2ccc3ncnc(Nc4ccc(OCc5cccc(F)c5)c(Cl)c4)c3c2)o1 [Lapatinib] (partner 2 µM)
Summary of the method: (§1)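 Lung cancer cell lines in 1536-well plates got either a single drug or a fixed anchor-drug dose together with five library-drug doses (not always all listed) in √10 steps, by pin tool, on the day after seeding. Nuclei were counted after 5 days, and relative viability is the treated-to-vehicle ratio of nuclei counts. Values are medians of duplicate plates.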

[1] = compound: C[C@@H](N)c1ccc(C(=O)Nc2ccnc3[nH]ccc23)cc1 + O=C(c1cc(Cc2n[nH]c(=O)c3ccccc23)ccc1F)N1CCN(C(=O)C2CC2)CC1 [Olaparib] (partner 8 µM)
Summary of the method: as §1

[2] = compound: C[C@@H](N)c1ccc(C(=O)Nc2ccnc3[nH]ccc23)cc1 + CC(=O)Nc1cccc(-n2c(=O)n(C3CC3)c(=O)c3c(Nc4ccc(I)cc4F)n(C)c(=O)c(C)c32)c1 [Trametinib] (partner 0.02 µM)
Summary of the method: as §1

[3] = compound: C1CNCCC1C2=CC(=NN2)C3=CC=NC=C3 + Cc1nc(NC(=O)N2CCC[C@H]2C(N)=O)sc1-c1ccnc(C(C)(C)C(F)(F)F)c1 [Alpelisib] (partner 2 µM)
Summary of the method: as §1

| Cell Line | relative viability (Tanzisertib + Lapatinib; first compound 0.08 µM) | relative viability (Tanzisertib + Lapatinib; first compound 0.253 µM) | relative viability (Tanzisertib + Lapatinib; first compound 0.8 µM) | relative viability (Tanzisertib + Lapatinib; first compound 2.53 µM) | relative viability (Tanzisertib + Lapatinib; first compound 8 µM) | relative viability ([1]; first compound 0.04 µM) | relative viability ([1]; first compound 0.1265 µM) | relative viability ([1]; first compound 0.4 µM) | relative viability ([1]; first compound 1.265 µM) | relative viability ([1]; first compound 4 µM) | relative viability ([2]; first compound 0.04 µM) | relative viability ([2]; first compound 0.1265 µM) | relative viability ([2]; first compound 0.4 µM) | relative viability ([2]; first compound 1.265 µM) | relative viability ([2]; first compound 4 µM) | relative viability ([3]; first compound 0.08 µM) | relative viability ([3]; first compound 0.8 µM) | relative viability ([3]; first compound 2.53 µM) | relative viability ([3]; first compound 8 µM) |
| --- | --- | --- | --- | --- | --- | --- | --- | --- | --- | --- | --- | --- | --- | --- | --- | --- | --- | --- | --- |
| NCI-H322M | 0.621 | 0.61 | 0.567 | 0.626 | 0.571 | 0.862 | 0.944 | 0.901 | 1.01 | 0.979 | 0.625 | 0.61 | 0.701 | 0.617 | 0.684 | 1.39 | 0.7 | 0.933 | 0.761 |
| NCI-H358 | 0.536 | 0.474 | 0.413 | 0.436 | 0.321 | 0.625 | 0.628 | 0.69 | 0.696 | 0.479 | 0.157 | 0.133 | 0.138 | 0.121 | 0.139 | 0.588 | 0.831 | 0.839 | 0.845 |
| NCI-H460 | 0.968 | 0.959 | 0.949 | 0.952 | 1.05 | 0.342 | 0.429 | 0.521 | 0.579 | 0.571 | 0.217 | 0.165 | 0.243 | 0.0564 | 0.178 | 0.381 | 0.343 | 0.593 | 0.62 |
| NCI-H520 | 0.834 | 0.804 | 0.827 | 0.789 | 0.819 | 0.359 | 0.332 | 0.29 | 0.373 | 0.318 | 0.915 | 0.73 | 0.697 | 0.891 | 0.719 | 0.88 | 0.666 | 0.831 | 0.658 |
| NCI-H596 | 1.18 | 1.15 | 1.04 | 1.09 | 0.985 | 0.63 | 0.698 | 0.723 | 0.749 | 0.763 | 0.922 | 0.826 | 0.906 | 0.752 | 0.759 | 0.508 | 0.488 | 0.526 | 0.532 |
| NCI-H647 | 1.28 | 1.23 | 1.01 | 1.31 | 0.917 | 0.668 | 0.615 | 0.602 | 0.478 | 0.474 | 0.387 | 0.47 | 0.46 | 0.424 | 0.385 | 0.969 | 1.12 | 1.31 | 1.22 |
| NCI-H650 | 0.963 | 1.14 | 1.02 | 1.06 | 0.295 |  | 0.385 | 0.433 |  | 0.325 |  | 0.959 | 0.968 |  | 1.03 | 0.86 | 1.08 | 1.22 | 0.997 |
| NCI-H661 | 0.596 | 0.431 | 0.505 | 0.511 | 0.449 | 0.734 | 0.722 | 0.895 | 0.706 | 0.597 | 0.48 | 0.595 | 0.571 | 0.475 | 0.494 | 0.879 | 0.647 | 0.799 | 0.733 |
| NCI-H727 | 0.934 | 0.872 | 0.952 | 0.988 | 0.842 | 0.64 | 0.738 | 0.8 | 0.771 | 0.742 | 0.41 | 0.432 | 0.404 | 0.466 | 0.467 | 0.478 | 0.552 | 0.542 | 0.524 |
| NCI-H838 | 1.22 | 0.993 | 1.04 | 0.998 | 0.958 | 0.789 | 0.826 | 0.658 | 0.397 | 0.283 | 0.261 | 0.512 | 0.45 | 0.289 | 0.192 | 0.984 | 1.11 | 1.03 | 0.996 |
| NCI-H1355 | 1.02 | 1.03 | 1.05 | 1.06 | 1.05 | 0.723 | 0.75 | 0.877 | 0.709 | 0.696 | 0.482 | 0.427 | 0.446 | 0.433 | 0.393 | 0.826 | 0.706 | 0.804 | 0.822 |
| NCI-H1395 | 1.02 | 1.1 | 1.08 | 0.985 | 0.914 | 0.473 | 0.511 | 0.406 |  | 0.393 | 1.04 | 0.996 | 1.03 |  | 0.912 | 0.977 | 0.77 | 1.46 | 0.975 |
| NCI-H1437 | 0.831 | 0.859 | 0.787 | 0.824 | 0.778 | 0.649 | 0.678 | 0.636 | 0.632 | 0.645 | 0.647 | 0.572 | 0.681 | 0.601 | 0.638 | 0.941 | 0.979 | 0.999 | 0.928 |
| NCI-H1651 | 0.898 | 1.03 | 0.797 | 0.782 | 0.864 | 0.195 | 0.174 | 0.179 | 0.24 | 0.221 | 0.877 | 0.862 | 0.959 | 0.941 | 0.848 | 0.767 | 1.09 | 0.904 | 1 |
| NCI-H1666 | 0.669 | 0.67 | 0.901 | 0.622 | 0.725 | 0.786 | 0.764 | 0.856 | 0.825 | 0.906 | 0.852 | 0.903 | 0.981 | 0.916 | 0.926 | 0.907 | 0.849 | 1.18 | 1.13 |
| NCI-H1734 | 1.15 | 1.13 | 0.952 | 1.16 | 1.08 | 0.642 | 0.591 | 0.652 | 0.559 | 0.45 | 0.735 | 0.698 | 0.708 | 0.668 | 0.582 | 0.684 | 0.618 | 0.768 | 0.706 |
| NCI-H1755 | 1.06 | 0.98 | 0.995 | 1.07 | 0.968 | 0.91 | 0.963 | 0.873 | 0.839 | 0.743 | 0.768 | 0.752 | 0.761 | 0.707 | 0.644 | 0.938 | 0.837 | 0.906 | 0.863 |
